Source: ChEMBL document CHEMBL1133695, “A three-dimensional model of lanosterol 14alpha-demethylase of Candida albicans and its interaction with azole antifungals” (J Med Chem, 2000)

What follows are compounds tested on Candida albicans (assay: Concentration required to reduce the growth of Candida albicans to 50% of that in the control).
Type: functional, organism-based

Row | SMILES | IC50 [µM]
1 | COc1cc(C(F)(F)F)ccc1C(O)(Cn1cncn1)Cn1cncn1 | 28.5
2 | OC(Cn1cncn1)(Cn1cncn1)c1ccccc1C(F)(F)F | 103
3 | OC(Cn1cncn1)(Cn1cncn1)c1ccc(-c2ccc(Cl)cc2)cc1 | 7.19
4 | OC(Cn1cncn1)(Cn1cncn1)c1ccc(C(F)(F)F)cc1 | 3.25
5 | Cc1cc(F)ccc1C(O)(Cn1cncn1)Cn1cncn1 | 101
6 | OC(Cn1cncn1)(Cn1cncn1)c1ccc(Oc2ccc(Cl)cc2)cc1 | 6.94
7 | OC(Cn1cncn1)(Cn1cncn1)c1ccc(F)cc1F [FLUCONAZOLE] | 1.97
